#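 GI50 = concentration required for 50% inhibition of growth. TGI: total growth inhibition.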
# Key:
# Test in all cases: NCI tumour cell line growth inhibition, 384-well format
# 786-0 renal = system: 786-0 renal
# A498 renal = system: A498 renal
# A549 NSCLC = system: A549 NSCLC
# ACHN renal = system: ACHN renal
# BT-549 breast = system: BT-549 breast
# CAKI-1 renal = system: CAKI-1 renal
# CCRF-CEM leukemia = system: CCRF-CEM leukemia
# COLO 205 colon = system: COLO 205 colon
# DU-145 prostate = system: DU-145 prostate
# EKVX NSCLC = system: EKVX NSCLC
# HCC-2998 colon = system: HCC-2998 colon
# HCT-116 colon = system: HCT-116 colon
# HCT-15 colon = system: HCT-15 colon
# HL-60(TB) leukemia = system: HL-60(TB) leukemia
# HOP-62 NSCLC = system: HOP-62 NSCLC
# HOP-92 NSCLC = system: HOP-92 NSCLC
# HS 578T breast = system: HS 578T breast
# HT29 colon = system: HT29 colon
# IGROV1 ovarian = system: IGROV1 ovarian
# K-562 leukemia = system: K-562 leukemia
# KM12 colon = system: KM12 colon
# LOX IMVI melanoma = system: LOX IMVI melanoma
# M14 melanoma = system: M14 melanoma
# MALME-3M melanoma = system: MALME-3M melanoma
# MCF7 breast = system: MCF7 breast
# MDA-MB-231 breast = system: MDA-MB-231 breast
# MDA-MB-435 melanoma = system: MDA-MB-435 melanoma
# MDA-MB-468 breast = system: MDA-MB-468 breast
# MOLT-4 leukemia = system: MOLT-4 leukemia
# NCI-H226 lung = system: NCI-H226 lung
# NCI-H23 lung = system: NCI-H23 lung
# NCI-H322M lung = system: NCI-H322M lung
# NCI-H460 NSCLC = system: NCI-H460 NSCLC
# NCI-H522 lung = system: NCI-H522 lung
# NCI/ADR-RES ovarian = system: NCI/ADR-RES ovarian
# OVCAR-3 ovarian = system: OVCAR-3 ovarian
# OVCAR-4 ovarian = system: OVCAR-4 ovarian
# OVCAR-5 ovarian = system: OVCAR-5 ovarian
# OVCAR-8 ovarian = system: OVCAR-8 ovarian
# PC-3 prostate = system: PC-3 prostate
# RPMI-8226 leukemia = system: RPMI-8226 leukemia
# RXF 393 renal = system: RXF 393 renal
# SF-268 CNS = system: SF-268 CNS
# SF-295 CNS = system: SF-295 CNS
# SF-539 CNS = system: SF-539 CNS
# SK-MEL-28 melanoma = system: SK-MEL-28 melanoma
# SK-MEL-5 melanoma = system: SK-MEL-5 melanoma
# SK-OV-3 ovarian = system: SK-OV-3 ovarian
# SN12C renal = system: SN12C renal
# SNB-19 CNS = system: SNB-19 CNS
# SNB-75 CNS = system: SNB-75 CNS
# SW-620 colon = system: SW-620 colon
# T-47D breast = system: T-47D breast
# TK-10 renal = system: TK-10 renal
# U251 glioblastoma = system: U251 glioblastoma
# UACC-257 melanoma = system: UACC-257 melanoma
# UACC-62 melanoma = system: UACC-62 melanoma
# UO-31 renal = system: UO-31 renal
structure (smiles),measurement,setting,value
N#Cc1c(Oc2ccc(F)c(NC(=O)Cc3cccc(C(F)(F)F)c3)c2)ccc2nc(NC(=O)C3CC3)sc12,GI50,786-0 renal,0.913 µM
same,TGI,786-0 renal,7.15 µM
same,GI50,A498 renal,1.7 µM
same,TGI,A498 renal,5.2 µM
same,GI50,A549 NSCLC,1.87 µM
same,TGI,A549 NSCLC,> 100 µM
same,GI50,ACHN renal,0.755 µM
same,TGI,ACHN renal,> 100 µM
same,GI50,BT-549 breast,1.32 µM
same,TGI,BT-549 breast,> 100 µM
same,GI50,CAKI-1 renal,1.14 µM
same,TGI,CAKI-1 renal,8.63 µM
same,GI50,CCRF-CEM leukemia,0.263 µM
same,TGI,CCRF-CEM leukemia,2.97 µM
same,GI50,COLO 205 colon,0.0311 µM
same,TGI,COLO 205 colon,2.64 µM
same,GI50,DU-145 prostate,2.77 µM
same,TGI,DU-145 prostate,> 100 µM
same,GI50,EKVX NSCLC,3.8 µM
same,TGI,EKVX NSCLC,35.6 µM
same,GI50,HCC-2998 colon,0.291 µM
same,TGI,HCC-2998 colon,7.01 µM
same,GI50,HCT-116 colon,0.158 µM
same,TGI,HCT-116 colon,1.85 µM
same,GI50,HCT-15 colon,0.401 µM
same,TGI,HCT-15 colon,> 100 µM
same,GI50,HL-60(TB) leukemia,0.0805 µM
same,TGI,HL-60(TB) leukemia,0.914 µM
same,GI50,HOP-62 NSCLC,1.7 µM
same,TGI,HOP-62 NSCLC,> 100 µM
same,GI50,HOP-92 NSCLC,0.783 µM
same,TGI,HOP-92 NSCLC,2.25 µM
same,GI50,HS 578T breast,0.698 µM
same,TGI,HS 578T breast,2.52 µM
same,GI50,HT29 colon,0.0642 µM
same,TGI,HT29 colon,> 100 µM
same,GI50,IGROV1 ovarian,0.434 µM
same,TGI,IGROV1 ovarian,3.11 µM
same,GI50,K-562 leukemia,0.114 µM
same,TGI,K-562 leukemia,0.3 µM
same,GI50,KM12 colon,1.21 µM
same,TGI,KM12 colon,> 100 µM
same,GI50,LOX IMVI melanoma,0.0418 µM
same,TGI,LOX IMVI melanoma,0.992 µM
same,GI50,M14 melanoma,0.0125 µM
same,TGI,M14 melanoma,0.117 µM
same,TGI,MALME-3M melanoma,0.0309 µM
same,GI50,MCF7 breast,0.717 µM
same,TGI,MCF7 breast,> 100 µM
same,GI50,MDA-MB-231 breast,0.0783 µM
same,TGI,MDA-MB-231 breast,2.52 µM
same,GI50,MDA-MB-435 melanoma,0.0622 µM
same,TGI,MDA-MB-435 melanoma,> 100 µM
same,GI50,MDA-MB-468 breast,1.06 µM
same,TGI,MDA-MB-468 breast,6.56 µM
same,GI50,MOLT-4 leukemia,0.0975 µM
same,TGI,MOLT-4 leukemia,0.238 µM
same,GI50,NCI-H226 lung,0.312 µM
same,TGI,NCI-H226 lung,4.19 µM
same,GI50,NCI-H23 lung,0.0989 µM
same,TGI,NCI-H23 lung,1.26 µM
same,GI50,NCI-H322M lung,1.33 µM
same,TGI,NCI-H322M lung,> 100 µM
same,GI50,NCI-H460 NSCLC,0.745 µM
same,TGI,NCI-H460 NSCLC,> 100 µM
same,GI50,NCI-H522 lung,0.484 µM
same,TGI,NCI-H522 lung,5.65 µM
same,GI50,NCI/ADR-RES ovarian,1.03 µM
same,TGI,NCI/ADR-RES ovarian,4.65 µM
same,GI50,OVCAR-3 ovarian,2.41 µM
same,TGI,OVCAR-3 ovarian,82.1 µM
same,GI50,OVCAR-4 ovarian,3.64 µM
same,TGI,OVCAR-4 ovarian,> 100 µM
same,GI50,OVCAR-5 ovarian,0.677 µM
same,TGI,OVCAR-5 ovarian,9.85 µM
same,GI50,OVCAR-8 ovarian,0.746 µM
same,TGI,OVCAR-8 ovarian,> 100 µM
same,GI50,PC-3 prostate,1.42 µM
same,TGI,PC-3 prostate,> 100 µM
same,GI50,RPMI-8226 leukemia,0.198 µM
same,TGI,RPMI-8226 leukemia,0.847 µM
same,GI50,RXF 393 renal,0.159 µM
same,TGI,RXF 393 renal,1.6 µM
same,GI50,SF-268 CNS,0.0395 µM
same,TGI,SF-268 CNS,0.263 µM
same,GI50,SF-295 CNS,0.516 µM
same,TGI,SF-295 CNS,> 100 µM
same,GI50,SF-539 CNS,1.07 µM
same,TGI,SF-539 CNS,3.06 µM
same,GI50,SK-MEL-28 melanoma,0.0167 µM
same,TGI,SK-MEL-28 melanoma,0.068 µM
same,GI50,SK-MEL-5 melanoma,0.0171 µM
same,TGI,SK-MEL-5 melanoma,1.68 µM
same,GI50,SK-OV-3 ovarian,1.79 µM
same,TGI,SK-OV-3 ovarian,> 100 µM
same,GI50,SN12C renal,0.461 µM
same,TGI,SN12C renal,4.71 µM
same,GI50,SNB-19 CNS,2.63 µM
same,TGI,SNB-19 CNS,> 100 µM
same,GI50,SNB-75 CNS,1.3 µM
same,TGI,SNB-75 CNS,4.36 µM
same,GI50,SW-620 colon,0.47 µM
same,TGI,SW-620 colon,8.51 µM
same,GI50,T-47D breast,1.2 µM
same,TGI,T-47D breast,6.7 µM
same,GI50,TK-10 renal,0.311 µM
same,TGI,TK-10 renal,3.52 µM
same,GI50,U251 glioblastoma,0.486 µM
same,TGI,U251 glioblastoma,8.26 µM
same,GI50,UACC-257 melanoma,0.0266 µM
same,TGI,UACC-257 melanoma,0.138 µM
same,GI50,UACC-62 melanoma,0.0152 µM
same,TGI,UACC-62 melanoma,0.106 µM
same,GI50,UO-31 renal,0.427 µM
same,TGI,UO-31 renal,2.22 µM

# Reference: PubChem BioAssay (NCI)
